Laboratory results from patent US20230310421A1, “MOLECULES FOR USE IN THE TREATMENT OF VIRAL INFECTIONS” (priority 2020, published 2023).

What was measured:
MHV-A59 = assay: Direct (intrinsic) antiviral activity: survival, titer and syncitia formation in L929, BMDMs and LA4 cells; format: cell-based, Murine Hepatitis Virus
L929 cells = assay: Macrophage extrinsic cytotoxic activity (ECT): supernatant of MHV-infected BMDM on L929 cells, CellTiter-Glo / live imaging; conditions: L929 cells exposed to supernatant from MOI 0.1-infected BMDM

Compound | intrinsic antiviral activity (MHV-A59; drug applied directly on infected L929 cells) | effect on ECT (viability in uninfected cells) (L929 cells) | effect on DDP rescue of cell viability of infected L929 cells (MHV-A59)
N[C@H]1CC[C@H](N[C@@H]2C[C@H]2c2ccccc2)CC1 [Ory1001] | elicited intrinsic antiviral activity | – | –
JAK inhibitor I | – | no effect | No effect
